Assay type in all cases: cell-based
One assay concerns the target T1, human TLR7 (Homo sapiens, UniProt Q9NYK1).
T1 construct: host or cells: HEK-Blue cells
T1 sequence (Q9NYK1 27-1049): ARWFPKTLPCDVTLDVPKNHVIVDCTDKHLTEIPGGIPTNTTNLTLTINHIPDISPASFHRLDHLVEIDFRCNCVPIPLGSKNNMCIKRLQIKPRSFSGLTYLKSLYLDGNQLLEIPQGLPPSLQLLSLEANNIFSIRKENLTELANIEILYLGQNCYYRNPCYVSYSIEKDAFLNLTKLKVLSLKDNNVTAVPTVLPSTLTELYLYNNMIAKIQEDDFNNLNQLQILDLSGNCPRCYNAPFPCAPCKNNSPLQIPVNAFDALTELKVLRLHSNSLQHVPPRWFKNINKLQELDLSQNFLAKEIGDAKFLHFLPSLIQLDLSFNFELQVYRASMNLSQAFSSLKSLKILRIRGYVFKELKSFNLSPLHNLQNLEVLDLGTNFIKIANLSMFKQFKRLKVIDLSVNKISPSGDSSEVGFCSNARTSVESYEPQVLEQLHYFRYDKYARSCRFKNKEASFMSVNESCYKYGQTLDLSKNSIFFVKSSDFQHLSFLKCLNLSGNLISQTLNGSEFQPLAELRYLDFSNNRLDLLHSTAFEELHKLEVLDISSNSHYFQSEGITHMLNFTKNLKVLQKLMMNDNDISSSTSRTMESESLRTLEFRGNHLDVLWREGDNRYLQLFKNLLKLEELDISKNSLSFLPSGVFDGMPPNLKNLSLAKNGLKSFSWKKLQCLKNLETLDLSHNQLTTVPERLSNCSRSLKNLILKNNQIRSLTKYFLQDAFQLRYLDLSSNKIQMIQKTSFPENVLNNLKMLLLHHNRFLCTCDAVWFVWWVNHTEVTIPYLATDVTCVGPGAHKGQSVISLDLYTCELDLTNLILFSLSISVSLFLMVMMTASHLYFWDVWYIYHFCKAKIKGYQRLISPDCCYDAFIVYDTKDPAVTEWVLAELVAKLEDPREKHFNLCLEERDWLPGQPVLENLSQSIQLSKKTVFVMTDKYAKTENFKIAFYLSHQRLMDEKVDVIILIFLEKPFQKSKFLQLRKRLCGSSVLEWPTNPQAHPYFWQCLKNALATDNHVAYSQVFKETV
As to the kind of experiment: TLR7 inhibition reporter assay (HEK-Blue cells, SEAP reporter, gardiquimod stimulation). The following applies: HEK-Blue cells overexpressing human TLR7, SEAP reporter, gardiquimod 7.5 μM; read-out: TLR7 IC50. An outline of the steps: (§1)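 Dose–response from 0.05 nM to 50 μM was run in HEK-Blue human TLR7, TLR8 and TLR9 reporter cells. After 30 min at room temperature with compound, ligand was added (TLR7 gardiquimod 7.5 μM; TLR8 R848 15.9 μM; TLR9 ODN2006 5 nM) and SEAP measured next day, at 22 h.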

The target in the next assay is T2, human TLR9 (Homo sapiens, UniProt Q9NR96).
T2 construct: host or cells: HEK-Blue cells
T2 sequence (Q9NR96 26-1032): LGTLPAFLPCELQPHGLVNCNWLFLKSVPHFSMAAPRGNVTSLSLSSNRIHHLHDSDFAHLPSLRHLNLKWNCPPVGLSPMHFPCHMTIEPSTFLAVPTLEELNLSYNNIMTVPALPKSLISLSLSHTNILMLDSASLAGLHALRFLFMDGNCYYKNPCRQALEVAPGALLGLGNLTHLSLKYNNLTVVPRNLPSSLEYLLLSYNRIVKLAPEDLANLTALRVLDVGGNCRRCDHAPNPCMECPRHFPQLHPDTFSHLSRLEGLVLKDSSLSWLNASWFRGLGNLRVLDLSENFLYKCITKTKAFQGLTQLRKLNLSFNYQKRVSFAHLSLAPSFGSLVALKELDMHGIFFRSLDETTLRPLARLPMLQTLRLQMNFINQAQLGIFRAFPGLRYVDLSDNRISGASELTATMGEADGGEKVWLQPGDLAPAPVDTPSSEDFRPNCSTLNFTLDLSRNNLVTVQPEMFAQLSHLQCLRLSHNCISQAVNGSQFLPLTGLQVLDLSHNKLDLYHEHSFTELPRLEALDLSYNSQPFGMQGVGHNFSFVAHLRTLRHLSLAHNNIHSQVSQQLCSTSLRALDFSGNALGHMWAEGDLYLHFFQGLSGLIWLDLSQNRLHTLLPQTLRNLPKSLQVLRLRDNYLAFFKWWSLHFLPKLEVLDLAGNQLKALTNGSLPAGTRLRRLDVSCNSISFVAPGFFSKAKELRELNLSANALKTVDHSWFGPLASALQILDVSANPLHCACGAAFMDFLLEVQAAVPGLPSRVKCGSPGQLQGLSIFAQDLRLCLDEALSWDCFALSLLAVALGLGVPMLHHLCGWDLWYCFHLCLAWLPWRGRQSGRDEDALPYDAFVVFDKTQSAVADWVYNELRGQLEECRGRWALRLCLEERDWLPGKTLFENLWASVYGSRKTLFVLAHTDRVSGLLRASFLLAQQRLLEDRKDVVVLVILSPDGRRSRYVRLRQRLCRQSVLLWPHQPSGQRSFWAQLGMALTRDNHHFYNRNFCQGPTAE
In words: TLR9 inhibition reporter assay (HEK-Blue cells, SEAP reporter, ODN2006 stimulation). The following applies: HEK-Blue cells overexpressing human TLR9, SEAP reporter, ODN2006 5 nM. In short, it runs like this:
as §1
(In general: A reporter such as luciferase makes a cellular process visible.)

A further assay deals with T3, human TLR8 (Homo sapiens, UniProt Q9NR97).
T3 construct: host or cells: HEK-Blue cells
T3 sequence (Q9NR97 27-1041): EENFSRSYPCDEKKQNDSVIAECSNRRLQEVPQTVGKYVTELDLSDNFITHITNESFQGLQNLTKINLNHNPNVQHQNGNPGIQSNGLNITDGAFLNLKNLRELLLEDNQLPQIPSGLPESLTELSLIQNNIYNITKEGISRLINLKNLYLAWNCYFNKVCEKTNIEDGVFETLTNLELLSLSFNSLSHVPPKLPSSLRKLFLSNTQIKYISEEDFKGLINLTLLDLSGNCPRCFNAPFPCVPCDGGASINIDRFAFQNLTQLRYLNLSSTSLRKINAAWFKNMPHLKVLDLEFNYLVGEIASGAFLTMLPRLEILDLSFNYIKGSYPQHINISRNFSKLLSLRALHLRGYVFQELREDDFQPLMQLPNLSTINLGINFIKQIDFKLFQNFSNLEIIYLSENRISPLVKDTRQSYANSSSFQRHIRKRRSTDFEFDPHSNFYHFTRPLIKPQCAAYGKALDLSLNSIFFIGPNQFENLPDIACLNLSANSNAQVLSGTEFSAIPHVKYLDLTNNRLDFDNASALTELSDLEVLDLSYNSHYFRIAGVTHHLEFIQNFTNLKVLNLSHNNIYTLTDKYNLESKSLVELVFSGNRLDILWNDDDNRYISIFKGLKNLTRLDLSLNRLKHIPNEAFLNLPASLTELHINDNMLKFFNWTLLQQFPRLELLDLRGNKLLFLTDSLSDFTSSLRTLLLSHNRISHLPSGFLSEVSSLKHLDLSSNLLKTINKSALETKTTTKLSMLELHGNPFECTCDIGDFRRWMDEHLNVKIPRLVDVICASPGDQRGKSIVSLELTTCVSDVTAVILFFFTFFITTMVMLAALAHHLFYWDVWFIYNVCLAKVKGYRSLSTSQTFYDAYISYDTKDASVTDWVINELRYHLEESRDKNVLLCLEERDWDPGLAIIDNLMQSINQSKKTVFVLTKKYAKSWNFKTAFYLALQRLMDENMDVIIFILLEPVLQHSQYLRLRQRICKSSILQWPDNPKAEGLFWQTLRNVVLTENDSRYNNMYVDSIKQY
As to the kind of experiment: TLR8 inhibition reporter assay (HEK-Blue cells, SEAP reporter, R848 stimulation). Conditions: HEK-Blue cells overexpressing human TLR8, SEAP reporter, R848 15.9 μM; read-out: TLR8 IC50. An outline of the steps:
as §1

Turning to `COc1cc(-c2[nH]c3sc(C4CCC(N(C)CCS(C)(=O)=O)CC4)nc3c2C(C)C)cn2ncnc12` (single isomer, unassigned) [Example 164, 4-(6-isopropyl-5-(8-methoxy-[1,2,4]triazolo[1,5-a]pyridin-6-yl)-4H-pyrrolo[3,2-d]thiazol-2-yl)-N-methyl-N-(2-(methylsulfonyl)ethyl) cyclohexan-1-amine], the IC50 at human TLR7 is 1.32 nM; against human TLR9 it was 15600 nM; on human TLR8, 4.43 nM.
For the compound `COc1cc(-c2[nH]c3sc(C4CCC(N(C)CCS(C)(=O)=O)CC4)nc3c2C(C)C)cn2ncnc12` (single isomer, unassigned) [Example 165, 4-(6-isopropyl-5-(8-methoxy-[1,2,4]triazolo[1,5-a]pyridin-6-yl)-4H-pyrrolo[3,2-d]thiazol-2-yl)-N-methyl-N-(2-(methylsulfonyl)ethyl) cyclohexan-1-amine], the figures for the IC50 at human TLR7, on human TLR9 and at human TLR8 were 1.61 nM, 22800 nM and 14.4 nM, respectively.
With `COc1cc(-c2[nH]c3sc(C4CCC(NC5CCN(C(C)C)CC5)CC4)nc3c2C(C)C)cn2ncnc12` (single isomer, unassigned) [Example 166, 1-isopropyl-N-(4-(6-isopropyl-5-(8-methoxy-[1,2,4]triazolo[1,5-a]pyridin-6-yl)-4H-pyrrolo[3,2-d]thiazol-2-yl)cyclohexyl)piperidin-4-amine], the IC50 at human TLR7 was 0.88 nM; on human TLR9 it was 383 nM; at human TLR8 it was 0.87 nM.
Consider `COc1cc(-c2[nH]c3sc(C4CCC(NC5CCN(C(C)C)CC5)CC4)nc3c2C(C)C)cn2ncnc12` (single isomer, unassigned) [Example 167, 1-isopropyl-N-(4-(6-isopropyl-5-(8-methoxy-[1,2,4]triazolo[1,5-a]pyridin-6-yl)-4H-pyrrolo[3,2-d]thiazol-2-yl)cyclohexyl)piperidin-4-amine], for which the IC50 on human TLR7 stood at 7.37 nM; against human TLR9, 1710 nM; at human TLR8, 34.8 nM.
Consider `COc1cc(-c2[nH]c3sc(C4CCC(NC56CC(C5)C6)CC4)nc3c2C(C)C)cn2ncnc12` (single isomer, unassigned) [Example 168, N-(4-(6-isopropyl-5-(8-methoxy-[1,2,4]triazolo[1,5-a]pyridin-6-yl)-4H-pyrrolo[3,2-d]thiazol-2-yl)cyclohexyl)bicyclo[1.1.1]pentan-1-amine], for which the figures for the IC50 on human TLR7, against human TLR9 and on human TLR8 were 6.58 nM, more than 50000 nM and 33.9 nM, respectively.
For `COc1cc(-c2[nH]c3sc(C4CCC(NC56CC(C5)C6)CC4)nc3c2C(C)C)cn2ncnc12` (single isomer, unassigned) [Example 169, N-(4-(6-isopropyl-5-(8-methoxy-[1,2,4]triazolo[1,5-a]pyridin-6-yl)-4H-pyrrolo[3,2-d]thiazol-2-yl)cyclohexyl)bicyclo[1.1.1]pentan-1-amine], the IC50 on human TLR7 turned out to be 4.17 nM; at human TLR9, 9810 nM; at human TLR8, 17 nM.
Take `CNCCNC1CCC(c2nc3c(C(C)C)c(-c4cc(OC)c5ncnn5c4)[nH]c3s2)CC1` (single isomer, unassigned) [Example 170, N1-(4-(6-isopropyl-5-(8-methoxy-[1,2,4]triazolo[1,5-a]pyridin-6-yl)-4H-pyrrolo[3,2-d]thiazol-2-yl)cyclohexyl)-N2-methylethane-1,2-diamine]: the IC50 at human TLR7 came to 2.38 nM; against human TLR9, 1760 nM; at human TLR8, 4.65 nM.
With `CNCCNC1CCC(c2nc3c(C(C)C)c(-c4cc(OC)c5ncnn5c4)[nH]c3s2)CC1` (single isomer, unassigned) [Example 171, N1-(4-(6-isopropyl-5-(8-methoxy-[1,2,4]triazolo[1,5-a]pyridin-6-yl)-4H-pyrrolo[3,2-d]thiazol-2-yl)cyclohexyl)-N2-methylethane-1,2-diamine], the IC50 at human TLR7 was 0.78 nM; against human TLR9, 879 nM; at human TLR8 it was 2.21 nM.
`CC(C)c1c(-c2cn(C)c3ncccc23)[nH]c2sc(C3CCC(NCC4(C)COC4)CC3)nc12` (single isomer, unassigned) [Example 172, 4-(6-isopropyl-5-(1-methyl-1H-pyrrolo[2,3-b]pyridin-3-yl)-4H-pyrrolo[3,2-d]thiazol-2-yl)-N-((3-methyloxetan-3-yl)methyl)cyclohexan-1-amine]: the 50% inhibitory concentration (IC50) at human TLR7 came out at 2.84 nM; at human TLR9, 14800 nM; on human TLR8 it was 1.22 nM.
On to `CC(C)c1c(-c2cn(C)c3ncccc23)[nH]c2sc(C3CCC(NCC4(C)COC4)CC3)nc12` (single isomer, unassigned) [Example 173, 4-(6-isopropyl-5-(1-methyl-1H-pyrrolo[2,3-b]pyridin-3-yl)-4H-pyrrolo[3,2-d]thiazol-2-yl)-N-((3-methyloxetan-3-yl)methyl)cyclohexan-1-amine], for which the IC50 at human TLR7 was 8.56 nM; at human TLR9 it was 7790 nM; on human TLR8, 7.58 nM.

As usually defined, the IC50 is the concentration at which inhibition is half-maximal.

The values above are taken from US20230139171A1 (SITA Information Networking Computing UK Limited, priority 2019, published 2023).
